{"source": "patent US8772029B2", "about": "“Modulation of oocyte meiotic progression and oocyte activation” (Northwestern University, priority 2011, dated 2014)", "key": {"MII eggs": {"system": "MII eggs", "assay": "Activation of in vivo ovulated MII eggs (SrCl2, TPEN, ZnPT pre-treatment)", "procedure": "Ovulated MII eggs were collected as described above. Eggs were transferred to KSOM medium with or without 10 μM ZnPT (1:1000 dilution of a 10 mM stock in DMSO) for exactly 5 minutes. Eggs were then washed in KSOM and allowed to recover for 10-15 minutes prior to activation. For SrCl2 activation, eggs were transferred to drops of calcium-free KSOM containing 10 mM SrCl2 for 2 hours, followed by 4 additional hours of culture in calcium-containing KSOM without SrCl2. TPEN activation was performed as previously described (Kim et al., 2011); eggs were cultured for 6 hours in KSOM containing 10 μM TPEN. Unactivated controls were cultured in KSOM for the same 6 hour time period to assess levels of spontaneous parthenogenesis.\nMII eggs were treated with the ionophore zinc pyrithione (ZnPT) for 5 minutes to increase intracellular zinc. Following a 10-15 minute recovery period, eggs were then treated with activating agents SrCl2 or TPEN."}, "MPF activity": {"system": "MPF activity", "assay": "Histone H1 kinase assay on single oocytes/eggs (MPF activity)", "type": "cell-based, mouse", "procedure": "Histone H1 and myelin basic protein (MBP) dual kinase assays were performed as previously described (Svoboda et al., 2000). Dried gels were exposed to Kodak BIOMAX MR films for 12 to 72 hours at −80° C. using Kodak intensifying screens; films were developed, scanned, and analyzed using ImageJ software. Assays were performed on single oocytes, and densitometric analysis is expressed relative to levels in control eggs."}, "oocytes": {"system": "oocytes", "assay": "Spindle phenotype scoring after in vitro maturation (IVM) with TPEN, MI-MII transition", "type": "cell-based, mouse", "procedure": "For IVM studies, immature female CD1 mice (17 to 21 day old) were injected with 5IU equine chorionic gonadotropin (eCG) (Calbiochem, La Jolla, CA) in 100 μL sterile phosphate-buffered saline (PBS), intraperitoneally. After 44 to 48 hours, mice were anesthetized using isoflurane and euthanized by cervical dislocation. Dissected ovaries were placed in Leibovitz L-15 medium containing 1% FBS (L-15/FBS) and 0.2mM 3-isobutyl-1-methylxanthine (IBMX), and large antral follicles were punctured using 28 gauge needles to release cumulus oocyte complexes (COCs). COCs were washed through several drops of culture medium consisting of Minimum Essential Medium (MEM)-alpha with GLUTAMAX supplemented with 10% FBS, 1.5IU/mL human chorionic gonadotropin (hCG), and 5ng/mL epidermal growth factor and placed in culture medium with or without 10 μM N,N,N′,N′-tetrakis(2-pyridylmethyl) ethylenediamine (TPEN). In some experiments Z-Leu-Leu-Leu-al (MG132) was added to culture medium at 20 μM. COCs were cultured in drops of pre-equilibrated medium covered with embryo quality mineral oil at 37° C. in 5% CO2 with a humid environment. Ovulated MII eggs were collected from 4 to 6 week old mice primed with 5IU PMSG followed 48 h later by 5IU hCG. Oviducts were dissected into L-15/FBS, and eggs were removed and treated with 0.03% (w/v) hyaluronidase to remove cumulus cells. Eggs were washed and cultured in potassium simplex optimized medium (KSOM) (Millipore, Billerica, MA) covered with embryo quality mineral oil at 37° C. in 5% CO2.\nOocytes were denuded of cumulus cells and fixed in a microtubule stabilizing buffer (Ibanez et al., 2005) containing 2% formaldehyde and 1% Triton X-100 for 30 min at 37° C. Oocytes were washed and blocked in PBS containing 0.1M glycine, 3mg/mL BSA, 0.01% Tween 20, and 0.01% sodium azide for at least 1 h and were stored in blocking solution at 4° C. for up to 2 weeks. Oocytes were incubated with anti-tubulin antibody (1:100) for 1 h at 37C. followed by three washes in blocking solution. They were then incubated for 1 h in AlexaFluor-488 conjugated anti-mouse secondary antibody (5μg/mL) and rhodamine-phalloidin (2U/mL), washed three additional times, and mounted in VECTASHIELD with DAPI. Microscopy was performed using a Leica SP5 inverted laser-scanning confocal microscope with a 63x oil immersion objective (Leica Microsystems, Heidelberg, Germany). Images were processed using LAS AF software (Leica Microsystems). […]\nOocytes treated with TPEN during the MI-MII transition fail to enter MII. Following IVM under the conditions listed in control (C) or TPEN-containing (T) medium, oocytes were stained and imaged, and their spindle phenotypes were scored."}, "[1]": {"settings": "COCs in control medium 7.5 h, then 10 μM TPEN 6.5 h, n=42"}, "[2]": {"settings": "COCs in control medium 7.5 h, then 10 μM TPEN 6.5 h, n=42, listed as T"}}}
{"compound": "c1ccc(CN(CCN(Cc2ccccn2)Cc2ccccn2)Cc2ccccn2)nc1", "note": "[TPEN, N,N,N′,N′-tetrakis(2-pyridylmethyl)ethylenediamine]", "values": [{"measurement": "egg activation by TPEN after ZnPT pre-treatment", "setting": "MII eggs; MII eggs, 10 μM ZnPT 5 minutes, then 10 μM TPEN 6 h", "value": "caused activation"}, {"measurement": "egg activation (second polar body and PN or PN-like structures)", "setting": "MII eggs; control MII eggs, by 6 hours post activation, 10 mM SrCl2 2 h or 10 μM TPEN 6 h", "value": "activated normally"}, {"measurement": "MPF activity (histone H1 kinase) in MII eggs", "setting": "MPF activity; in vivo ovulated MII eggs, KSOM with 10 μM TPEN, 1 to 8 hours, seen as soon as 1 hour", "value": "decline"}, {"measurement": "MPF activity (histone H1 kinase)", "setting": "MPF activity; oocytes cultured with 10 μM TPEN during the MI-MII transition (7.5 h control, 6.5 h TPEN)", "value": "low"}, {"measurement": "TPEN-like (telophase-I arrest-like) spindle phenotype", "setting": "oocytes; [1]", "value": 31, "unit": "%"}, {"measurement": "normal MII spindle", "setting": "oocytes; [1]", "value": "failed to form MII spindles and none"}, {"measurement": "other (>2 chr. masses) spindle phenotype", "setting": "oocytes; [1]", "value": 19, "unit": "%"}, {"measurement": "partial TPEN-like (chromatin mass) spindle phenotype", "setting": "oocytes; [1]", "value": 54, "unit": "%"}, {"measurement": "TPEN-like (telophase-I arrest-like) spindle phenotype", "setting": "oocytes; [2]", "value": 31, "unit": "%"}, {"measurement": "normal MII spindle", "setting": "oocytes; [2]", "value": 0, "unit": "%"}, {"measurement": "partial TPEN-like (chromatin mass) spindle phenotype", "setting": "oocytes; [2]", "value": 54, "unit": "%"}, {"measurement": "TPEN-like (telophase-I arrest-like) spindle phenotype", "setting": "oocytes; TPEN 14 h IVM, n=34", "value": 91, "unit": "%"}, {"measurement": "normal MII spindle", "setting": "oocytes; TPEN 14 h IVM, n=34", "value": 0, "unit": "%"}, {"measurement": "other (>2 chr. masses) spindle phenotype", "setting": "oocytes; TPEN 14 h IVM, n=34", "value": 6, "unit": "%"}, {"measurement": "partial TPEN-like (chromatin mass) spindle phenotype", "setting": "oocytes; TPEN 14 h IVM, n=34", "value": 3, "unit": "%"}]}
